Target: Human immunodeficiency virus type 1 reverse transcriptase (Human immunodeficiency virus 1, UniProt Q72547)
Assay: Inhibition of HIV-1 reverse transcriptase after 1 hr by ELISA plate reader analysis

IC50 [µM]	Compound
0.49	O=C1c2ccccc2S[C@H]2[C@@H](O)[C@@H](O)[C@H](O)[C@H](CO)N12
12.9	O=C1CCS[C@H]2[C@@H](O)[C@@H](O)[C@H](O)[C@H](CO)N12
53.8	O=C1c2cccnc2S[C@@H]2[C@@H](O)[C@@H](O)[C@H](O)[C@@H](CO)N12
31.4	O=C1c2cccnc2S[C@H]2[C@@H](O)[C@@H](O)[C@H](O)[C@H](CO)N12
19.7	O=C1c2ccccc2S[C@@H]2[C@@H](O)[C@@H](O)[C@H](O)[C@@H](CO)N12
3.83	O=C1c2ccccc2S[C@@H]2[C@@H](O)[C@@H](O)[C@H](O)CN12
6.02	O=C1CCS[C@@H]2[C@@H](O)[C@@H](O)[C@H](O)[C@H](CO)N12
26.8	O=C1c2cccnc2S[C@@H]2[C@@H](O)[C@@H](O)[C@H](O)[C@H](CO)N12
1.41	O=C1CCS[C@@H]2[C@@H](O)[C@@H](O)[C@H](O)[C@@H](CO)N12
1.32	O=C1c2ccccc2S[C@@H]2[C@@H](O)[C@@H](O)[C@H](O)[C@H](CO)N12
1.58	O=C1c2ccccc2S[C@H]2[C@@H](O)[C@@H](O)[C@H](O)CN12
